What was measured:
Recombinant mTOR (FRAP1) = target: T1, Recombinant mTOR (FRAP1) (Homo sapiens, UniProt P42345); test: mTOR in vitro kinase assay (TR-FRET, phosphorylation of GFP-4E-BP1); assay type: biochemical; details: for IC50: 8 μM ATP, 400 nM GFP-4E-BP1; for inhibition at 1 µM: 1 uM compound, read-out: mTOR % Inhib@1 uM
T1 construct: purchased Invitrogen
Outline: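 Recombinant human mTOR with GFP-4E-BP1 substrate at 400 nM and 8 μM ATP, 1 h at room temperature, then quenched with 10 mM EDTA plus 2 nM Tb-anti-p4E-BP1 (pThr46) for 1 h. TR-FRET 520/486 nm ratio fitted against inhibitor concentration by four-parameter sigmoidal regression.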

[1] = target: T2, PI3 Kinase alpha (p110 alpha/p85 alpha) (Homo sapiens, UniProt P42336); test: PI3K TR-FRET assay (Transcreener ADP2); assay type: biochemical; details: for IC50: PI3K alpha, 1 μM ATP, 50 μM PIP2; for inhibition at 1 µM: 1 uM compound, read-out: PI3K % Inhib@1 uM
T2 construct: purchased Invitrogen
Outline: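 p110α/p85α with diC8 PIP2 (50 μM) and 1 μM ATP in 50 mM HEPES pH 7.4, MgCl2, CHAPS, DTT, EGTA; 1 h at room temperature. ADP detected by Transcreener ADP2 TR-FRET (665/615 nm ratio), converted to product via ADP-ATP standard curve; IC50 from four-parameter fit of % inhibition.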

T1 sequence (P42345 1360-2549 limits assumed): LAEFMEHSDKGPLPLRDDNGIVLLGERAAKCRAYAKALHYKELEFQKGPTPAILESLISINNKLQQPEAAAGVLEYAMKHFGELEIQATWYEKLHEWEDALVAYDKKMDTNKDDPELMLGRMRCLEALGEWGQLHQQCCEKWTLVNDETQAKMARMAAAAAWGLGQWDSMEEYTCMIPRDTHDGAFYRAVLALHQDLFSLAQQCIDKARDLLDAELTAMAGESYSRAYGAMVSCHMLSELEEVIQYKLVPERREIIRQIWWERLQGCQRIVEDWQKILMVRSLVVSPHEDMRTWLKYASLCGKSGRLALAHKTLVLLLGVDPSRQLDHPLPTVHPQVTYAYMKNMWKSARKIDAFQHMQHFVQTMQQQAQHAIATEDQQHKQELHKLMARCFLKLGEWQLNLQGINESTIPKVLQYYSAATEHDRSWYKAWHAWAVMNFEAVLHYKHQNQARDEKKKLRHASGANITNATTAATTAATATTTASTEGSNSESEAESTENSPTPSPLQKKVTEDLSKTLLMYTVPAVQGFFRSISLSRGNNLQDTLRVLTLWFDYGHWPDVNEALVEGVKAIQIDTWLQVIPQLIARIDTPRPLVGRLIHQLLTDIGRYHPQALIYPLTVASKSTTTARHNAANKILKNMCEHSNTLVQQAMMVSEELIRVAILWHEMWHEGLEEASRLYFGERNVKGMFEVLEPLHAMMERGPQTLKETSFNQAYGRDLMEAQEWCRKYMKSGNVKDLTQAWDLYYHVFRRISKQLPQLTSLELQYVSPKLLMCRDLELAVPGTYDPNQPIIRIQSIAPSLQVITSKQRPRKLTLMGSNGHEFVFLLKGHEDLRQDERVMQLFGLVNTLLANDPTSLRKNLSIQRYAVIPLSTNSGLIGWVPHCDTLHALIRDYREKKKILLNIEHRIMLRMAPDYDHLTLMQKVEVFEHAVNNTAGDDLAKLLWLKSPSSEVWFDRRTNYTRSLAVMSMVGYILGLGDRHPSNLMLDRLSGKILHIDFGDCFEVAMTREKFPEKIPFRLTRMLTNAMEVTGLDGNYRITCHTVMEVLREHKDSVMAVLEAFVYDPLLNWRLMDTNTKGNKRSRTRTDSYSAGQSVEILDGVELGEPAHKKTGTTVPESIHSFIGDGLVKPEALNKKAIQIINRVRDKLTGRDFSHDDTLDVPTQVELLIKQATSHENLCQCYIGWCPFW
T2 sequence (P42336 whole entry): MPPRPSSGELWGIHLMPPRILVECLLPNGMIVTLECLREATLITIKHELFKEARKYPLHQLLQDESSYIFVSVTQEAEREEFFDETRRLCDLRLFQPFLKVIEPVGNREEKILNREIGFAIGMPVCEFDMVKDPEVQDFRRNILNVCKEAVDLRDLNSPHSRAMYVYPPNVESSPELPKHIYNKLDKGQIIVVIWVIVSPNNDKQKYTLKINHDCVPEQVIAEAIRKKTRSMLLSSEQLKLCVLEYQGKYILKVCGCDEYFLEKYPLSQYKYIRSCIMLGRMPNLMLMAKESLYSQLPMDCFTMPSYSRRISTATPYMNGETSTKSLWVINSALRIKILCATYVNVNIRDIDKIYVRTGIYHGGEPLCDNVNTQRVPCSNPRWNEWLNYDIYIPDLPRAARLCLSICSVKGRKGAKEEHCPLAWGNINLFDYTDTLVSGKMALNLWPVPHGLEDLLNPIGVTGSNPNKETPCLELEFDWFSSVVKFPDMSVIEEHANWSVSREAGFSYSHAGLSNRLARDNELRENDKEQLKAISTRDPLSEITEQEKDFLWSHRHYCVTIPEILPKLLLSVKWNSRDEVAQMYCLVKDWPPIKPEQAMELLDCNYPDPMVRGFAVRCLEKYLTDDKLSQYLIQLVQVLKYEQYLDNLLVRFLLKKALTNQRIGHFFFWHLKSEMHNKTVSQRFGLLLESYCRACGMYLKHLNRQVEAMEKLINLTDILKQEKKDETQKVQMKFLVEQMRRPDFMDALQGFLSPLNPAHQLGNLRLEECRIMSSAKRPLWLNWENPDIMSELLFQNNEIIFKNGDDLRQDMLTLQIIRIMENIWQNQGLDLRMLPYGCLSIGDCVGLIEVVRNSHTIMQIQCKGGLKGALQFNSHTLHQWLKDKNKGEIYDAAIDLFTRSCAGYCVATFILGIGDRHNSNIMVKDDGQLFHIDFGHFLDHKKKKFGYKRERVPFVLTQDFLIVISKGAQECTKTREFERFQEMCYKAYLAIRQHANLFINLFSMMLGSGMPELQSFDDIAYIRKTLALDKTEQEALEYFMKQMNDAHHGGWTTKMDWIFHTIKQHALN
T2 sequence (P27986 whole entry partner): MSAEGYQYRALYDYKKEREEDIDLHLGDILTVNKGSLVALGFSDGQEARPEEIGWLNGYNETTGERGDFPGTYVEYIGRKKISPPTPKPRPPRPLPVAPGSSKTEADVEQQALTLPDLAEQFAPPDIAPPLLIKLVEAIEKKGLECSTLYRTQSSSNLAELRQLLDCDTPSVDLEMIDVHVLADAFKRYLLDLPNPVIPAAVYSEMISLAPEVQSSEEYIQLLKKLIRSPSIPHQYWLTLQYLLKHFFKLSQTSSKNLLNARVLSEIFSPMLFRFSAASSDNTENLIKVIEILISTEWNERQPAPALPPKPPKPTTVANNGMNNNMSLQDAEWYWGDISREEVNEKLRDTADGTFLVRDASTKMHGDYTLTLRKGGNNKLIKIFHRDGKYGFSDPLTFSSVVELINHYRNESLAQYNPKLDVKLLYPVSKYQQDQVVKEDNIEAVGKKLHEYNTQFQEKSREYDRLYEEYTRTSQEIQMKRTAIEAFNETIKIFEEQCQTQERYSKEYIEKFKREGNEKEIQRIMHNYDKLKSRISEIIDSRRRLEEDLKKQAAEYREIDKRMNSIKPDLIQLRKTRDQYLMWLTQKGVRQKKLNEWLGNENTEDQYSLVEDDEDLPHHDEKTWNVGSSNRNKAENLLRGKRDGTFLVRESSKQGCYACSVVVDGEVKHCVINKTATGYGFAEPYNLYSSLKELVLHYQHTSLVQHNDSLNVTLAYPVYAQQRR

Row | Compound | IC50 (Recombinant mTOR (FRAP1)) [µM] | IC50 [1] [µM] | inhibition at 1 µM (Recombinant mTOR (FRAP1)) [%] | inhibition at 1 µM [1] [%]
1 | CN(C)C(=O)c1ccc(Oc2nc(-c3cnc4[nH]ccc4c3)nc(N3CCOCC3)n2)c(F)c1 [Compound 10158, 4-(4-morpholino-6-(1H-pyrrolo[2,3-b]pyridin-5-yl)-1,3,5-triazin-2-yloxy)-3-fluoro-N,N-dimethylbenzamide] | < 1 | < 1 |  | 
2 | CS(=O)(=O)N1CCC(COc2nc(-c3cnc(N)s3)nc(N3CCOCC3)n2)C1 (stereo not drawn) [Compound 10197, 5-(4-((1-(methylsulfonyl)pyrrolidin-3-yl)methoxy)-6-morpholino-1,3,5-triazin-2-yl)thiazol-2-amine] |  | < 1 | < 50 | 
3 | C[C@H]1COCCN1c1nc(Oc2ccc(C(=O)N(C)C)cc2)nc(-c2cnc3[nH]ccc3c2)n1 [Compound 10157, 4-(4-((S)-3-methylmorpholino)-6-(1H-pyrrolo[2,3-b]pyridin-5-yl)-1,3,5-triazin-2-yloxy)-N,N-dimethylbenzamide] | < 1 | < 1 |  | 
4 | C[C@@H]1CN(c2nc(Oc3ccc(C(=O)N(C)C)cc3F)nc(-c3ccc4[nH]ncc4c3)n2)[C@@H](C)CO1 [Compound 10064, 4-((4-((2R,3S)-2,5-dimethylmorpholino)-6-(1H-indazol-5-yl)-1,3,5-triazin-2-yl)oxy)3-fluoro-N,N-dimethylbenzamide] | < 1 |  |  | < 50
5 | CN(C)C(=O)c1ccc(Oc2nc(-c3cnc(N)s3)nc(N3CCO[C@@H]4CCCC[C@H]43)n2)cc1 [Compound 10131, 4-(4-(2-aminothiazol-5-yl)-6-((4aR,8aR)-octahydrobenzo[b][1,4]oxazin-4-yl)-1,3,5-triazin-2-yloxy)-N,N-dimethylbenzamide] |  |  | < 50 | < 50
6 | C[C@H]1COCCN1c1nc(OC2CCC(C(=O)N(C)C)CC2)nc(-c2ccc3[nH]ccc3c2)n1 (stereo partly drawn) [Compound 10141, (1R,4s)-4-(4-(1H-indol-5-yl)-6-((S)-3-methylmorpholino)-1,3,5-triazin-2-yloxy)-N,N-dimethylcyclohexanecarboxamide] | < 1 | > 10 |  | < 50
7 | NC(=O)c1ccc(Oc2nc(-c3cnc(N)s3)nc(N3CCOCC3)n2)cc1 [Compound 10201, 4-((4-(2-aminothiazol-5-yl)-6-morpholino-1,3,5-triazin-2-yl)oxy)benzamide] |  | < 1 | < 50 | 
8 | CS(=O)(=O)N1CCC(COc2nc(-c3cnc(N)s3)nc(N3CCOCC3)n2)CC1 [Compound 10194, 5-(4-((1-(methylsulfonyl)piperidin-4-yl)methoxy)-6-morpholino-1,3,5-triazin-2-yl)thiazol-2-amine] |  | < 1 | < 50 | 
9 | C[C@H]1COCCN1c1nc(Oc2ccc(C(=O)N(C)C)cc2F)nc(-c2cnc(N)nc2)n1 [Compound 10204, (S)-4-((4-(2-aminopyrimidin-5-yl)-6-(3-methylmorpholino)-1,3,5-triazin-2-yl)oxy)-3-fluoro-N,N-dimethylbenzamide] | < 1 | < 1 |  | 
10 | CN(C)C(=O)c1ccc(Oc2nc(-c3cnc(N)s3)nc(N3CCOCC3)n2)cc1 [Compound 10017, 4-(4-(2-aminothiazol-5-yl)-6-morpholino-1,3,5-triazin-2-yloxy)-N,N-dimethylbenzamide] | < 1 | < 1 |  | 
11 | C[C@@H]1CN(c2nc(Oc3ccc(C(=O)N(C)C)cc3F)nc(-c3cnc(N)s3)n2)[C@@H](C)CO1 [Compound 10057, 4-((4-(2-Aminothiazol-5-yl)-6-((2R,5S)-2,5-dimethylmorpholino)-1,3,5-triazin-2-yl)oxy)-3-fluoro-N,N-dimethylbenzamide] | < 1 |  |  | < 50
12 | CN(C)C(=O)[C@H]1CC[C@H](Oc2nc(-c3ccc(N)nc3)nc(N3CCO[C@@H]4CCC[C@H]43)n2)CC1 [Compound 10148, (1R,4r)-4-(4-(6-aminopyridin-3-yl)-6-((4aR,7aR)-hexahydrocyclopenta[b][1,4]oxazin-4(4aH)-yl)-1,3,5-triazin-2-yloxy)-N,N-dimethylcyclohexanecarboxamide] | < 1 |  |  | < 50
13 | CN(C)C(=O)c1ccc(Oc2nc(-c3cnc(N)s3)nc(N3CCOCC3(C)C)n2)cc1 [Compound 10128, 4-(4-(2-aminothiazol-5-yl)-6-(3,3-dimethylmorpholino)-1,3,5-triazin-2-yloxy)-N,N-dimethylbenzamide] | < 1 | < 1 | > 50 | > 50
14 | CN(C)C(=O)N1CCC(Oc2nc(-c3ccc(N)nc3)nc(N3CCOCC3)n2)CC1 [Compound 10021, 4-(4-(6-aminopyridin-3-yl)-6-morpholino-1,3,5-triazin-2-yloxy)-N,N-dimethylpiperidine-1-carboxamide] | < 1 | < 1 | > 50 | 
15 | C[C@H]1COCCN1c1nc(Oc2ccc(C(=O)N(C)C)cc2F)nc(-c2cnc3[nH]ccc3c2)n1 [Compound 10103, (S)-3-Fluoro-N,N-dimethyl-4-((4-(3-methylmorpholino)-6-(1H-pyrrolo-[2,3-b]pyridin-5-yl)-1,3,5-triazin-2-yl)oxy)benzamide] | < 1 | < 1 |  | 
16 | C[C@@H]1COC[C@H](C)N1c1nc(Oc2ccc(C(=O)N(C)C)cc2)nc(-c2cnc(N)s2)n1 [Compound 10079, 4-((4-(2-Aminothiazol-5-yl)-6-((3S,5R)-3,5-dimethylmorpholino)-1,3,5-triazin-2-yl)oxy)-N,N-dimethybenzamide] | < 1 | > 1 |  | < 50
17 | C[C@H]1COCCN1c1nc(Oc2ccc(C(=O)N(C)C)cc2F)nc(-c2cnc(N)cc2C(F)(F)F)n1 [Compound 10067, (S)-4-((4-(6-Amino-4-(trifluoromethyl)pyridine-3-yl)-6-(3-methylmorpholino)-1,3,5-triazin-2-yl)oxy)-3-fluoro-N,N-dimethylbenzamide] | < 1 | < 1 |  | 
18 | C[C@@H]1COCCN1c1nc(Oc2ccc(C(=O)N(C)C)cc2F)nc(-c2ccc(N)nc2)n1 [Compound 10099, (R)-4-((4-(6-Aminopyridin-3-yl)-6-(3-methylmorpholino)-1,3,5-triazin-2-yl)oxy)-3-fluoro-N,N-dimethylbenzamide] | < 1 | < 1 |  | > 50
19 | CN(C)C(=O)c1ccc(Oc2nc(-c3cnc(N)cc3C(F)(F)F)nc(N3CCOCC3)n2)c(F)c1 [Compound 10065, 4-((4-(6-Amino-4-(trifluoromethyl)pyridine-3-yl)-6-morpholino-1,3,5-triazin-2-yl)oxy)-3-fluoro-N,N-dimethylbenzamide] | < 1 | < 1 |  | 
20 | CN(C)C(=O)c1cccc(Oc2nc(-c3cnc(N)s3)nc(N3CCOCC3)n2)c1 [Compound 10195, 3-((4-(2-aminothiazol-5-yl)-6-morpholino-1,3,5-triazin-2-yl)oxy)-N,N-dimethylbenzamide] |  | < 1 | < 50 | 
21 | C[C@@H]1OCCN(c2nc(Oc3ccc(C(=O)N(C)C)cc3F)nc(-c3cnc(N)s3)n2)[C@H]1C [Compound 10053, 4-((4-(2-Aminothiazol-5-yl)-6-((2S,3S)-2,3-dimethylmorpholino)-1,3,5-triazin-2-yl)oxy)-3-fluoro-N,N-dimethylbenzamide] | < 1 | > 1 |  | 
22 | CN(C)C(=O)c1ccc(Oc2nc(-c3ccc4[nH]ncc4c3)nc(N3C4CCC3COC4)n2)c(F)c1 [Compound 10136, 4-(4-(3-oxa-8-aza-bicyclo[3.2.1]octan-8-yl)-6-(1H-indazol-5-yl)-1,3,5-triazin-2-yloxy)-3-fluoro-N,N-dimethylbenzamide] | < 1 | > 10 | > 50 | < 50
23 | CN(C)C(=O)N1CCC(Oc2nc(-c3cnc(N)s3)nc(N3CCOCC3)n2)CC1 [Compound 10003, 4-(4-(2-aminothiazol-5-yl)-6-morpholino-1,3,5-triazin-2-yloxy)-N,N-dimethylpiperidine-1-carboxamide] | < 1 | < 1 | > 50 | 
24 | C[C@H]1COCCN1c1nc(Oc2ccc(C(=O)N(C)C)cc2F)nc(-c2ccc(N)nc2)n1 [Compound 10058, (S)-4-((4-(6-Aminopyridin-3-yl)-6-(3-methylmorpholino)-1,3,5-triazin-2-yl)oxy)-3-fluoro-N,N-dimethylbenzamide] | < 1 | < 1 |  | 

— US9630958B2, “Triazine compounds” (Sphaera Pharma Pte. Ltd., priority 2012, dated 2017)
